# Measured values as given in patent US6166091A, “2,3,4-trihydroxycyclopentanone” (Takara Shuzo Co., Ltd., priority 1997, dated 2000).
# What was measured:
# [1] = storage of aqueous cyclopentenone solution, conversion to hydroxycyclopentanone; type: physicochemical; conditions: water; aqueous solution stored at 4° C. for 30 days; read-out: cyclopentenone changed to hydroxycyclopentanone in aqueous solution
# mice = experiment: toxicity by oral administration to mice; type: in vivo; conditions: oral administration of 100 mg/kg to mice
# [2] = standing in aqueous solution, TLC detection of cyclopentenone formed; type: physicochemical; conditions: 4 mM in water, 16 hours at 4° C., 37° C. or 45° C.
# Protocol: Hydroxycyclopentanone obtained in Example 2-(2) was dissolved in water to make the concentration 4 mM followed by allowing to stand for 16 hours at 4° C., 37° C. or 45° C. One μl of each of the samples was spotted on a silica gel 60 sheet F254 (manufactured by Merck), developed by the upper layer of a mixture of butyl acetate, acetic acid and water (3:2:2) and detected by means of an orcinol-sulfuric acid method. Thus, 400 mg of orcinol monohydrate (manufactured by Nacalai Tesque; 257-30) was dissolved in 22.8 ml of sulfuric acid, water was added to make 200 ml, the solution was sprayed on the thin layer after the development and heated at 120° C. for 1-2 minutes and the resulting spots were observed.
degraded at 720 h [1],SMILES,toxicity (mice),conversion to cyclopentenone in aqueous solution (TLC spot) [2]
~30%,"O=C1C=CC(O)C1O (stereo not drawn) [cyclopentenone, 4,5-dihydroxy-2-cyclopenten-1-one]",,
,"O=C1CC(O)C(O)C1O (stereo not drawn) [hydroxycyclopentanone, 2,3,4-trihydroxycyclopentanone]",no toxicity was noted,"a spot for cyclopentenone was noted in all of the samples and the higher the temperature for allowing to stand, the stronger the color of the spot for cyclopentenone"
